Laboratory results from PubChem BioAssay AID248 (DTP/NCI, 2004).
Several values for one entry are separate records, joined by “and”; a condition that tells them apart may be missing. Equal values may be shown once. Inconclusive results and toxic doses are left out. Rule as the data show it: active = T/C of 150% or more; inactive = T/C below 125%.

Tested on: L1210 leukemia ip in BDF1 mice, survival T/C
Experiment: NCI In Vivo Anticancer Drug Screen. Data for tumor model L1210 Leukemia (intraperitoneal) in B6D2F1 (BDF1) mice
Conditions: endpoint: mean survival time, higher = longer survival
Method in brief: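 Tumor cells were implanted, animals were treated, and survival was followed. The result divides the treated measurement by the vehicle-control measurement.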

[1] = dose: 100.0 mg/kg/injection, schedule: Q04DX003 (ip), vehicle: saline with Tween-80
[2] = dose: 200.0 mg/kg/injection, schedule: Q04DX003 (ip), vehicle: saline with Tween-80
[3] = dose: 400.0 mg/kg/injection, schedule: Q04DX003 (ip), vehicle: saline with Tween-80
[4] = dose: 100.0 mg/kg/injection, schedule: Q01DX009 (ip), vehicle: saline with Tween-80
[5] = dose: 200.0 mg/kg/injection, schedule: Q01DX009 (ip), vehicle: saline with Tween-80
[6] = dose: 400.0 mg/kg/injection, schedule: Q01DX009 (ip), vehicle: saline with Tween-80
[7] = dose: 50.0 mg/kg/injection, schedule: Q01DX001 (ip), vehicle: saline
[8] = dose: 100.0 mg/kg/injection, schedule: Q01DX001 (ip), vehicle: saline
[9] = dose: 200.0 mg/kg/injection, schedule: Q01DX001 (ip), vehicle: saline
[10] = dose: 400.0 mg/kg/injection, schedule: Q01DX001 (ip), vehicle: saline
[11] = dose: 100.0 mg/kg/injection, schedule: Q01DX009 (ip), vehicle: Klucel (hydroxypropylcellulose) (HPC)
[12] = dose: 200.0 mg/kg/injection, schedule: Q01DX009 (ip), vehicle: Klucel (hydroxypropylcellulose) (HPC)
[13] = dose: 400.0 mg/kg/injection, schedule: Q01DX009 (ip), vehicle: Klucel (hydroxypropylcellulose) (HPC)
[14] = dose: 100.0 mg/kg/injection, schedule: Q01DX001 (ip), vehicle: saline with Tween-80
[15] = dose: 200.0 mg/kg/injection, schedule: Q01DX001 (ip), vehicle: saline with Tween-80
[16] = dose: 400.0 mg/kg/injection, schedule: Q01DX001 (ip), vehicle: saline with Tween-80
[17] = dose: 6.25 mg/kg/injection, schedule: Q01DX009 (ip), vehicle: saline
[18] = dose: 12.5 mg/kg/injection, schedule: Q01DX009 (ip), vehicle: saline
[19] = dose: 12.5 mg/kg/injection, schedule: Q04DX003 (ip), vehicle: Klucel (hydroxypropylcellulose) (HPC)
[20] = dose: 25.0 mg/kg/injection, schedule: Q01DX009 (ip), vehicle: saline
[21] = dose: 100.0 mg/kg/injection, schedule: Q04DX003 (ip), vehicle: Klucel (hydroxypropylcellulose) (HPC)
[22] = dose: 200.0 mg/kg/injection, schedule: Q04DX003 (ip), vehicle: Klucel (hydroxypropylcellulose) (HPC)
[23] = dose: 400.0 mg/kg/injection, schedule: Q04DX003 (ip), vehicle: Klucel (hydroxypropylcellulose) (HPC)
[24] = dose: 50.0 mg/kg/injection, schedule: Q01DX009 (ip), vehicle: saline with Tween-80
[25] = dose: 50.0 mg/kg/injection, schedule: Q04DX003 (ip), vehicle: saline with Tween-80

Measured: T/C

O=C(CSCc1ccccc1)c1ccccc1
inactive: [1] 90 % of control | [2] 90 % of control | [3] 100 % of control

CC(=O)Nc1ccc(-c2ccc(C)cc2)cc1
inactive: [1] 104 % of control | [2] 106 % of control | [3] 95 % of control

CC1CN(Cl)C(=O)N(Cl)C1=O (stereo not given)
inactive: dose: 10.0 mg/kg/injection, schedule: Q01DX001 (ip), vehicle: saline 96 % of control | dose: 20.0 mg/kg/injection, schedule: Q01DX001 (ip), vehicle: saline 98 % of control | dose: 40.0 mg/kg/injection, schedule: Q01DX001 (ip), vehicle: saline 92 % of control

c1ccc(CCc2ccccc2)cc1
inactive: [4] 91 % of control | dose: 100.0 mg/kg/injection, schedule: Q04DX002 (ip), vehicle: saline with Tween-80 95 % of control | [5] 91 % of control | dose: 200.0 mg/kg/injection, schedule: Q04DX002 (ip), vehicle: saline with Tween-80 98 % of control | [6] 94 % of control | dose: 400.0 mg/kg/injection, schedule: Q04DX002 (ip), vehicle: saline with Tween-80 98 % of control

Cc1ccc(O)c(CCCO)c1
inactive: [7] 97 % of control | [8] 105 % of control | [9] 94 % of control

N#C/C=C/C1CCCCC1
inactive: dose: 25.0 mg/kg/injection, schedule: Q04DX003 (ip), vehicle: saline 109 % of control | dose: 50.0 mg/kg/injection, schedule: Q04DX003 (ip), vehicle: saline 107 % of control | [8] 95 % of control | dose: 100.0 mg/kg/injection, schedule: Q04DX003 (ip), vehicle: saline 105 % of control

Cc1ccc(Br)cc1C(c1cc(Br)ccc1C)C(O)C(O)C(O)C(O)CO (stereo not given)
inactive: [7] 106 % of control | [8] 106 % of control | [9] 110 % of control | [10] 98 % of control

CC(C)(C)NC(=O)Oc1ccccc1C(N)=O
inactive: [11] 95 % of control | [12] 95 % of control | [13] 94 % of control

COC(=O)c1ccc(N(C)CC2=Nc3c(nc(N)nc3SCc3ccccc3)NC2)cc1
inactive: [14] 97 % of control | [15] 108 % of control | [16] 101 % of control

CC1=CCC(=C(C)C)C1C(=O)NC1CCCCC1 (stereo not given)
inactive: [8] 97 % of control | dose: 100.0 mg/kg/injection, schedule: Q01DX009 (ip), vehicle: propolene glycol 105 % of control | dose: 200.0 mg/kg/injection, schedule: Q01DX009 (ip), vehicle: propolene glycol 109 % of control | [10] 100 % of control | dose: 400.0 mg/kg/injection, schedule: Q01DX009 (ip), vehicle: propolene glycol 106 % of control

CONS(=O)c1ccc(Cl)cc1 (stereo not given)
inactive: dose: 100.0 mg/kg/injection, schedule: Q04DX002 (ip), vehicle: Klucel (hydroxypropylcellulose) (HPC) 96 % of control | dose: 200.0 mg/kg/injection, schedule: Q04DX002 (ip), vehicle: Klucel (hydroxypropylcellulose) (HPC) 92 % of control | dose: 400.0 mg/kg/injection, schedule: Q04DX002 (ip), vehicle: Klucel (hydroxypropylcellulose) (HPC) 108 % of control

O=C1C(Br)CS(=O)(=O)CC1Br (stereo not given)
inactive: [17] 96 % of control | dose: 8.75 mg/kg/injection, schedule: Q01DX009 (ip), vehicle: saline 106 % of control | [18] 86 % of control | [19] 96 % of control | dose: 15.0 mg/kg/injection, schedule: Q01DX001 (ip), vehicle: carboxymethylcellulose (CMC) 102 % of control | dose: 17.5 mg/kg/injection, schedule: Q01DX009 (ip), vehicle: saline 98 % of control | [20] 91 % of control | dose: 25.0 mg/kg/injection, schedule: Q04DX003 (ip), vehicle: Klucel (hydroxypropylcellulose) (HPC) 94 % of control | dose: 30.0 mg/kg/injection, schedule: Q01DX001 (ip), vehicle: carboxymethylcellulose (CMC) 106 % of control

Cc1c(Cl)ccc2c(C(=O)NN)cc(-c3ccc(Cl)cc3)nc12
inactive: [14] 92 % of control | [15] 97 % of control | [16] 97 % of control

CCOC(=O)C(C(=O)OCC)C1C=CCC1 (stereo not given)
inactive: [11] 104 % of control | [21] 98 % of control | [12] 96 % of control | [22] 97 % of control | [13] 91 % of control | [23] 108 % of control

Cc1cc(C)c(C(=O)O)c(C)c1.[Hg]
inactive: dose: 3.0 mg/kg/injection, schedule: Q04DX003 (ip), vehicle: Klucel (hydroxypropylcellulose) (HPC) 96 % of control | dose: 6.0 mg/kg/injection, schedule: Q04DX003 (ip), vehicle: Klucel (hydroxypropylcellulose) (HPC) 91 % of control | dose: 12.0 mg/kg/injection, schedule: Q04DX003 (ip), vehicle: Klucel (hydroxypropylcellulose) (HPC) 86 % of control | [19] 88 % of control

CC(C)(C)NC(=O)NCCc1ccccc1
inactive: [11] 106 % of control | [21] 96 % of control | [22] 97 % of control and 89 % of control | [13] 103 % of control | [23] 91 % of control and 92 % of control

CCOC(=O)c1ccc(C(=O)OCC)c(C#N)n1
inactive: [11] 102 % of control | [21] 100 % of control | [12] 97 % of control | [22] 93 % of control | [23] 95 % of control

COc1ccc(N=NN(C)C)cc1
inactive: dose: 6.25 mg/kg/injection, schedule: Q01DX009 (ip), vehicle: saline with Tween-80 98 % of control | dose: 12.5 mg/kg/injection, schedule: Q01DX009 (ip), vehicle: saline with Tween-80 100 % of control | dose: 12.5 mg/kg/injection, schedule: Q04DX003 (ip), vehicle: saline with Tween-80 107 % of control | dose: 18.75 mg/kg/injection, schedule: Q01DX001 (ip), vehicle: saline with Tween-80 107 % of control | dose: 25.0 mg/kg/injection, schedule: Q01DX009 (ip), vehicle: saline with Tween-80 100 % of control | dose: 25.0 mg/kg/injection, schedule: Q04DX003 (ip), vehicle: saline with Tween-80 108 % of control | dose: 37.5 mg/kg/injection, schedule: Q01DX001 (ip), vehicle: saline with Tween-80 108 % of control | [24] 104 % of control | [25] 115 % of control | [1] 108 % of control

CCC(=O)c1ccc2ccccc2c1
inactive: [21] 100 % of control | [22] 104 % of control | [23] 100 % of control

O=C(O)C(Cc1ccsc1)C(=O)O
inactive: [8] 101 % of control | [9] 93 % of control

CN1CCC(CN2c3ccccc3Sc3ccccc32)C1 (stereo not given)
inactive: dose: 3.12 mg/kg/injection, schedule: Q01DX009 (ip), vehicle: saline 95 % of control | [17] 107 % of control | [18] 101 % of control | [20] 101 % of control

Cc1ccc(C(C)(Cl)/N=N\C(C)(Cl)c2ccc([N+](=O)[O-])cc2)cc1 (stereo not given)
inactive: [1] 90 % of control | [2] 96 % of control | [3] 98 % of control

COc1ccc(Sc2cccc3c2C(C)(O)c2c(Sc4ccc(OC)cc4)cccc2C3(C)O)cc1 (stereo not given)
inactive: [4] 100 % of control | [1] 97 % of control | [5] 92 % of control | [2] 95 % of control | [6] 92 % of control | [3] 93 % of control

NC1C2C(CC(=O)O)OCC=C3CN4CCC1(C(=O)C(=O)O)C4CC32 (stereo not given)
inactive: dose: 0.5 mg/kg/injection, schedule: Q01DX001 (ip), vehicle: saline 101 % of control | dose: 1.0 mg/kg/injection, schedule: Q01DX001 (ip), vehicle: saline 101 % of control | dose: 2.0 mg/kg/injection, schedule: Q01DX001 (ip), vehicle: saline 102 % of control | dose: 4.0 mg/kg/injection, schedule: Q01DX001 (ip), vehicle: saline 106 % of control

O=C1/C(=C/c2ccc(O)c(O)c2)Cc2ccccc21
inactive: [21] 117 % of control | [22] 105 % of control | [23] 104 % of control

N#COc1cccc(OCCOc2cccc(OC#N)c2)c1
inactive: [24] 99 % of control | [25] 97 % of control | [14] 89 % of control | [4] 94 % of control | [1] 90 % of control | [15] 87 % of control | [5] 100 % of control | [2] 87 % of control
